In PubChem BioAssay (NCI):
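All cell lines were grown in 96-well plates and treated with compound for 48 hours. GI50 is the concentration that inhibits growth by half. At the TGI there is no net growth.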

Key:
Assay in all cases: NCI-60 cell line screen, 48 h
[1] = system: SN12C renal
[2] = system: T-47D breast
[3] = system: EKVX NSCLC
[4] = system: SF-295 CNS
[5] = system: U251 CNS
[6] = system: NCI-H23 lung
[7] = system: HOP-92 NSCLC
[8] = system: SF-539 CNS
[9] = system: UACC-257 melanoma
[10] = system: LOX IMVI melanoma
[11] = system: HCT-15 colon
[12] = system: MCF7 breast
[13] = system: UACC-62 melanoma
[14] = system: SK-MEL-5 melanoma
[15] = system: OVCAR-5 ovarian
[16] = system: OVCAR-4 ovarian
[17] = system: TK-10 renal
[18] = system: A549 NSCLC
[19] = system: SK-MEL-28 melanoma
[20] = system: NCI/ADR-RES ovarian
[21] = system: MOLT-4 leukemia
[22] = system: MDA-MB-231 breast
[23] = system: 786-0 renal
[24] = system: SNB-19 CNS
[25] = system: SW-620 colon
[26] = system: BT-549 breast
[27] = system: SK-OV-3 ovarian
[28] = system: OVCAR-8 ovarian
[29] = system: ACHN renal
[30] = system: SNB-75 CNS
[31] = system: HCT-116 colon
[32] = system: HT29 colon
[33] = system: HOP-62 NSCLC
[34] = system: M14 melanoma
[35] = system: MDA-MB-435
[36] = system: HL-60(TB) leukemia
[37] = system: HS 578T breast
[38] = system: NCI-H226 lung
[39] = system: HCC-2998 colon
[40] = system: PC-3 prostate
[41] = system: SK-MEL-2 melanoma
[42] = system: OVCAR-3 ovarian
[43] = system: RXF 393 renal
[44] = system: CCRF-CEM leukemia
[45] = system: KM12 colon
[46] = system: DU-145 prostate
[47] = system: CAKI-1 renal
[48] = system: A498 renal
[49] = system: NCI-H460 lung
[50] = system: COLO 205 colon
[51] = system: SF-268 CNS
[52] = system: SR leukemia
[53] = system: UO-31 renal
[54] = system: NCI-H522 lung
[55] = system: MALME-3M melanoma
[56] = system: IGROV1 ovarian
[57] = system: RPMI-8226 leukemia

Question: With `O=C(O)CN(CCN(CC(=O)O)CC(=O)O)CCN(CC(=O)O)CC(=O)O` as the compound, how does the GI50 [1] read?
Answer: 2.8 µM

Question: And the TGI [1]?
Answer: 13.9 µM

Question: What about the GI50 [2] of the same compound?
Answer: 3.74 µM

Question: And the TGI [2]?
Answer: 14.5 µM

Question: And the GI50 [3]?
Answer: 3.26 µM

Question: And the TGI [3]?
Answer: 9.91 µM

Question: And the GI50 [4]?
Answer: 3.25 µM

Question: And the TGI [4]?
Answer: 21.3 µM

Question: What about the GI50 [5] of the same compound?
Answer: 4.14 µM

Question: And the TGI [5]?
Answer: 21.2 µM

Question: What about the GI50 [6] of the same compound?
Answer: 2.45 µM

Question: And the TGI [6]?
Answer: 10.2 µM

Question: What about the GI50 [7] of the same compound?
Answer: 11.5 µM

Question: What about the TGI [7] of the same compound?
Answer: 79 µM

Question: And the GI50 [8]?
Answer: 2.86 µM

Question: What about the TGI [8] of the same compound?
Answer: 7.98 µM

Question: And the GI50 [9]?
Answer: 4.35 µM

Question: And the TGI [9]?
Answer: 18.8 µM

Question: What about the GI50 [10] of the same compound?
Answer: 3.22 µM

Question: What about the TGI [10] of the same compound?
Answer: 11.6 µM

Question: And the GI50 [11]?
Answer: 3.67 µM

Question: What about the TGI [11] of the same compound?
Answer: 20.9 µM

Question: And the GI50 [12]?
Answer: 3.75 µM

Question: What about the TGI [12] of the same compound?
Answer: 22.1 µM

Question: And the GI50 [13]?
Answer: 3.35 µM

Question: What about the TGI [13] of the same compound?
Answer: 15.9 µM

Question: And the GI50 [14]?
Answer: 2.92 µM

Question: What about the TGI [14] of the same compound?
Answer: 9.07 µM

Question: And the GI50 [15]?
Answer: 4.01 µM

Question: And the TGI [15]?
Answer: 20 µM

Question: And the GI50 [16]?
Answer: 2.51 µM

Question: And the TGI [16]?
Answer: 7.51 µM

Question: And the GI50 [17]?
Answer: 2.87 µM

Question: And the TGI [17]?
Answer: 7.52 µM

Question: And the GI50 [18]?
Answer: 1.62 µM

Question: And the TGI [18]?
Answer: 3.5 µM

Question: What about the GI50 [19] of the same compound?
Answer: 4.05 µM

Question: And the TGI [19]?
Answer: 17.2 µM

Question: What about the GI50 [20] of the same compound?
Answer: 3.1 µM

Question: And the TGI [20]?
Answer: 13.7 µM

Question: And the GI50 [21]?
Answer: 2.57 µM

Question: What about the TGI [21] of the same compound?
Answer: 8.26 µM

Question: What about the GI50 [22] of the same compound?
Answer: 10.5 µM

Question: And the TGI [22]?
Answer: 87.6 µM

Question: What about the GI50 [23] of the same compound?
Answer: 2.54 µM

Question: What about the TGI [23] of the same compound?
Answer: 6.72 µM

Question: What about the GI50 [24] of the same compound?
Answer: 5.18 µM

Question: And the TGI [24]?
Answer: 61.6 µM

Question: What about the GI50 [25] of the same compound?
Answer: 3.85 µM

Question: And the TGI [25]?
Answer: 19 µM

Question: And the GI50 [26]?
Answer: 2.77 µM

Question: And the TGI [26]?
Answer: 9.45 µM

Question: What about the GI50 [27] of the same compound?
Answer: 3.19 µM

Question: And the TGI [27]?
Answer: 8.62 µM

Question: What about the GI50 [28] of the same compound?
Answer: 3.19 µM

Question: What about the TGI [28] of the same compound?
Answer: 14.8 µM

Question: And the GI50 [29]?
Answer: 2.59 µM

Question: And the TGI [29]?
Answer: 13.6 µM

Question: And the GI50 [30]?
Answer: 1.99 µM

Question: What about the TGI [30] of the same compound?
Answer: 7.86 µM

Question: And the GI50 [31]?
Answer: 3.42 µM

Question: What about the TGI [31] of the same compound?
Answer: 12.7 µM

Question: What about the GI50 [32] of the same compound?
Answer: 3.99 µM

Question: What about the TGI [32] of the same compound?
Answer: 16.2 µM

Question: And the GI50 [33]?
Answer: 1.98 µM

Question: What about the TGI [33] of the same compound?
Answer: 5.07 µM

Question: And the GI50 [34]?
Answer: 5.29 µM

Question: What about the TGI [34] of the same compound?
Answer: 21.5 µM

Question: And the GI50 [35]?
Answer: 3.94 µM

Question: What about the TGI [35] of the same compound?
Answer: 21.8 µM

Question: And the GI50 [36]?
Answer: 2.12 µM

Question: What about the TGI [36] of the same compound?
Answer: 5.01 µM

Question: And the GI50 [37]?
Answer: 2.09 µM

Question: And the TGI [37]?
Answer: 56.7 µM

Question: What about the GI50 [38] of the same compound?
Answer: 4.65 µM

Question: What about the TGI [38] of the same compound?
Answer: 16.5 µM

Question: And the GI50 [39]?
Answer: 4.42 µM

Question: What about the TGI [39] of the same compound?
Answer: 27 µM

Question: What about the GI50 [40] of the same compound?
Answer: 5.46 µM

Question: And the TGI [40]?
Answer: > 100 µM

Question: What about the GI50 [41] of the same compound?
Answer: 3.16 µM

Question: And the TGI [41]?
Answer: 9.8 µM

Question: And the GI50 [42]?
Answer: 3.51 µM

Question: And the TGI [42]?
Answer: 9.84 µM

Question: And the GI50 [43]?
Answer: 2.07 µM

Question: What about the TGI [43] of the same compound?
Answer: 4.85 µM

Question: And the GI50 [44]?
Answer: 3.18 µM

Question: And the TGI [44]?
Answer: > 100 µM

Question: What about the GI50 [45] of the same compound?
Answer: 4.94 µM

Question: What about the TGI [45] of the same compound?
Answer: 37.6 µM

Question: What about the GI50 [46] of the same compound?
Answer: 2.94 µM

Question: What about the TGI [46] of the same compound?
Answer: 8.82 µM

Question: And the GI50 [47]?
Answer: 3.58 µM

Question: And the TGI [47]?
Answer: 20.2 µM

Question: What about the GI50 [48] of the same compound?
Answer: 1.86 µM

Question: And the TGI [48]?
Answer: 15.1 µM

Question: And the GI50 [49]?
Answer: 2.49 µM

Question: And the TGI [49]?
Answer: 7.09 µM

Question: And the GI50 [50]?
Answer: 4.55 µM

Question: What about the TGI [50] of the same compound?
Answer: 16.5 µM

Question: And the GI50 [51]?
Answer: 3.04 µM

Question: And the TGI [51]?
Answer: 10.8 µM

Question: How did the TGI [1] turn out when `C[C@]12CC[C@H]3[C@@H](CC=C4C[C@@H](N5CCCC5)CC[C@@]43C)[C@@H]1C/C(=C\c1ccc([N+](=O)[O-])cc1)[C@@H]2O` was run?
Answer: 27.5 µM

Question: What about the TGI [2] of the same compound?
Answer: 46.9 µM

Question: And the TGI [4]?
Answer: 96.7 µM

Question: What about the TGI [52] of the same compound?
Answer: 3.98 µM

Question: What about the TGI [5] of the same compound?
Answer: 25.2 µM

Question: What about the TGI [6] of the same compound?
Answer: 37.4 µM

Question: What about the TGI [7] of the same compound?
Answer: 27.7 µM

Question: What about the TGI [8] of the same compound?
Answer: 32.4 µM

Question: What about the TGI [9] of the same compound?
Answer: 31.5 µM

Question: What about the TGI [10] of the same compound?
Answer: 30.9 µM

Question: And the TGI [53]?
Answer: 28.4 µM

Question: And the TGI [11]?
Answer: 28.4 µM

Question: And the TGI [12]?
Answer: 68.9 µM

Question: And the TGI [13]?
Answer: 29.3 µM

Question: What about the TGI [14] of the same compound?
Answer: 28.3 µM

Question: And the TGI [16]?
Answer: 25.4 µM

Question: And the TGI [17]?
Answer: 35.8 µM

Question: And the TGI [18]?
Answer: 32.6 µM

Question: What about the TGI [19] of the same compound?
Answer: 28.2 µM

Question: And the TGI [20]?
Answer: 43.4 µM

Question: What about the TGI [21] of the same compound?
Answer: 4.99 µM

Question: What about the TGI [54] of the same compound?
Answer: 32 µM

Question: What about the TGI [22] of the same compound?
Answer: 30.2 µM

Question: What about the TGI [23] of the same compound?
Answer: 17.9 µM

Question: And the TGI [24]?
Answer: 59.2 µM

Question: What about the TGI [25] of the same compound?
Answer: 36.6 µM

Question: And the TGI [26]?
Answer: 26.7 µM

Question: And the TGI [27]?
Answer: 30.1 µM

Question: And the TGI [29]?
Answer: 29.3 µM

Question: And the TGI [31]?
Answer: 29.8 µM

Question: And the TGI [32]?
Answer: 27.4 µM

Question: And the TGI [33]?
Answer: 32 µM

Question: What about the TGI [34] of the same compound?
Answer: 30.2 µM

Question: And the TGI [35]?
Answer: 31 µM

Question: And the TGI [37]?
Answer: 40.3 µM

Question: What about the TGI [38] of the same compound?
Answer: 36.2 µM

Question: And the TGI [40]?
Answer: 88 µM

Question: And the TGI [42]?
Answer: 31.5 µM

Question: What about the TGI [43] of the same compound?
Answer: 57.8 µM

Question: What about the TGI [44] of the same compound?
Answer: 14.1 µM

Question: And the TGI [45]?
Answer: 33.2 µM

Question: What about the TGI [46] of the same compound?
Answer: 34.7 µM

Question: What about the TGI [55] of the same compound?
Answer: 32.1 µM

Question: And the TGI [47]?
Answer: 27.6 µM

Question: And the TGI [56]?
Answer: 28.2 µM

Question: And the TGI [48]?
Answer: 28.6 µM

Question: What about the TGI [49] of the same compound?
Answer: > 100 µM

Question: And the TGI [57]?
Answer: 38.5 µM

Question: What about the TGI [50] of the same compound?
Answer: 32.6 µM

Question: And the TGI [51]?
Answer: 40.1 µM
